Source: patent publication US7196112B2, “Cell adhesion inhibitors” (Biogen Idec MA Inc., priority 2004, dated 2007)
Like-named read-outs stand apart in the source and are kept apart here.

How the values were obtained:
α4β1 [1] = target: T1, α4β1 (Homo sapiens, UniProt P05556+P13612); assay: Kinetic binding to α4β1 on Jurkat cells, competition with 35S-B as probe for free α4β1; design: endogenous in cells; host or cells: Jurkat human T-cell line; conditions: for Kd: calculated from on- and off-rate constants; for koff: read-out: koff/10^−4; for kon: read-out: kon/10^6
Experimental: All cells were periodically monitored for high integrin surface expression by FACS analysis. The binding of the various inhibitors to α4β1 were assessed on Jurkat cells by competition using radioactive ^35S-B as a reporter for a 1 occupancy. Jurkat cells were pelleted by centrifugation, washed two times with TBS (50 mM Tris HCl, 150 mM NaCl, 0.1% bovine serum albumin, 2 mM glucose, 10 mM HEPES pH 7.4), suspended at approximately 2×10^6 cells/mL in TBS, and counted using a Neubauer hemocytometer. The cells were further diluted 2×10^6 cells/mL with TBS containing 1 mM CaCl2 and 1 mM MgCl2 and treated with serial dilutions of test compound for 1 hour, and then 5 nM ^35S-B, an amount sufficient to bind all unoccupied receptors, was added for 10 minutes before measuring the bound counts. The cells were then pelleted by centrifugation, resuspended in 100 μL of TBS plus Mn^2+, and transferred to a scintillation vial containing 2.9 mL of ScintiVerse II (Fisher Scientific). Cell-associated radioactivity was quantified by scintillation counting. All studies were performed in siliconized 1.5 mL eppendorf tubes with a standard 1 mL sample volume. Each condition was tested in at least two independent studies. Non-specific binding of ^35S-B to cells was assessed at each cell density and ^35S-B concentration in TBS but in the absence of added metal ion. Specific counts bound were calculated by subtracting non specific counts from total counts bound. Counts bound under these conditions measures integrin that is not occupied by the test compound and is therefore free to bind the ^35S-B. The competition format was also used for kinetic binding studies. Binding and dissociation constants were calculated from α4β1 that remained free to bind the ^35S-B after treatment with test compound.
The affinities of the PEGylated inhibitors for α4β1 were calculated from association and disassociation rate constants using a kinetic analysis. For these studies, Jurkat cells expressing α4β1 (75,000 copies/cell) were treated with the inhibitors and then ^35S-B was added as a probe to detect free α4β1. The levels of bound inhibitor were calculated from a measure of total ^35S-B bound in the absence of added inhibitor and counts bound following inhibitor treatment.

α4β1 [2] = target: T1, α4β1; assay: Equilibrium binding on Jurkat cells, competition with 35S-B as reporter
Experimental: The α4β1-expressing Jurkat human T-cell line (a gift from S. Burakoff, Dana Farber Cancer Institute, Boston, Mass.), and the α4β7-expressing human B-cell line, JY (American Type Tissue Collection, Rockville, Md.) were maintained in culture at 37° C. in RPMI-1640 medium supplemented with 10% fetal bovine serum (FBS). K562 cell lines transfected with either the human α1-integrin chain (Phil Gotwells, Biogen, Inc) or with the human α2 integrin chain (a gift from M. Hemler, Dana Farber Cancer Institute, Boston, Mass.) were maintained in RPMI-1640 medium supplemented with 10% FBS and 1 mg/mL G418. All cells were periodically monitored for high integrin surface expression by FACS analysis. The binding of the various inhibitors to α4β1 were assessed on Jurkat cells by competition using radioactive ^35S-B as a reporter for a 1 occupancy. Jurkat cells were pelleted by centrifugation, washed two times with TBS (50 mM Tris HCl, 150 mM NaCl, 0.1% bovine serum albumin, 2 mM glucose, 10 mM HEPES pH 7.4), suspended at approximately 2×10^6 cells/mL in TBS, and counted using a Neubauer hemocytometer. The cells were further diluted 2×10^6 cells/mL with TBS containing 1 mM CaCl2 and 1 mM MgCl2 and treated with serial dilutions of test compound for 1 hour, and then 5 nM ^35S-B, an amount sufficient to bind all unoccupied receptors, was added for 10 minutes before measuring the bound counts. The cells were then pelleted by centrifugation, resuspended in 100 μL of TBS plus Mn^2+, and transferred to a scintillation vial containing 2.9 mL of ScintiVerse II (Fisher Scientific). Cell-associated radioactivity was quantified by scintillation counting. All studies were performed in siliconized 1.5 mL eppendorf tubes with a standard 1 mL sample volume. Each condition was tested in at least two independent studies. Non-specific binding of ^35S-B to cells was assessed at each cell density and ^35S-B concentration in TBS but in the absence of added metal ion. Specific counts bound were calculated by subtracting non specific counts from total counts bound. Counts bound under these conditions measures integrin that is not occupied by the test compound and is therefore free to bind the ^35S-B. The competition format was also used for kinetic binding studies. Binding and dissociation constants were calculated from α4β1 that remained free to bind the ^35S-B after treatment with test compound.
The affinities of the PEGylated inhibitors for α4β1 were calculated from association and disassociation rate constants using a kinetic analysis. For these studies, Jurkat cells expressing α4β1 (75,000 copies/cell) were treated with the inhibitors and then ^35S-B was added as a probe to detect free α4β1. The levels of bound inhibitor were calculated from a measure of total ^35S-B bound in the absence of added inhibitor and counts bound following inhibitor treatment. […] IC50 values were calculated from equilibrium binding studies on Jurkat cells through competition using ^35S-B as a reporter in buffer containing 1 mM Ca^2+ and 1 mM Mg^2+.
Second, the effect of protein binding on the affinity of the PEGylated inhibitors for α4β1 on Jurkat cells was evaluated from equilibrium binding measurements.

α4β1 [3] = target: T1, α4β1; assay: VCAM-Ig direct binding assay (DBA), Jurkat cells
Text: A direct binding assay may also be employed to quantitate the inhibitory activity of the compounds. In this assay, a VCAM-IgG fusion protein containing the first two immunoglobulin domains of VCAM (D1D2) attached above the hinge region of an IgG1 molecule (“VCAM 2D-IgG”), is conjugated to a marker enzyme, such as alkaline phosphatase (“AP”). […] The conjugation of that fusion to a marker enzyme is achieved by cross-linking methods well-known in the art.
The VCAM-IgG enzyme conjugate is then placed in the wells of a multi-well filtration plate, such as that contained in the Millipore Multiscreen Assay System (Millipore Corp., Bedford, Mass.). Varying concentrations of the test inhibitory compound are then added to the wells followed by addition of VLA-4-expressing cells. The cells, compound and VCAM-IgG enzyme conjugate are mixed together and allowed to incubate at room temperature. Following incubation, the wells are vacuum drained, leaving behind the cells and any bound VCAM. Quantitation of bound VCAM is determined by adding an appropriate calorimetric substrate for the enzyme conjugated to VCAM-IgG and determining the amount of reaction product. Decreased reaction product indicates increased binding inhibitory activity.
Samples were also evaluated for function using the VCAM-Ig direct binding assay. Details for the construction of the VCAM-Ig animal cell expression vector, the generation of a Chinese hamster ovary (CHO) cell line expressing VCAM-Ig, conjugation of the VCAM-Ig to alkaline phosphatase, and the development of a direct binding assay for characterizing α4β1 and α4β7 binding to VCAM-Ig were as previously described (see Lobb, R. R., et al. (1995) Cell Adhes. Commun. 3:385–397).
For these studies, a series of compounds based on compound E containing 0.35, 2, 5, 20, 30, and 50 kDa-mPEG was synthesized and tested for binding to α4β1 on Jurkat cells with VCAM-Ig as a reporter (see methods).

[4] = IC50, buffer with 1 mM Ca2+ and 1 mM Mg2+, no plasma

T1 sequence (P13612 34-1032): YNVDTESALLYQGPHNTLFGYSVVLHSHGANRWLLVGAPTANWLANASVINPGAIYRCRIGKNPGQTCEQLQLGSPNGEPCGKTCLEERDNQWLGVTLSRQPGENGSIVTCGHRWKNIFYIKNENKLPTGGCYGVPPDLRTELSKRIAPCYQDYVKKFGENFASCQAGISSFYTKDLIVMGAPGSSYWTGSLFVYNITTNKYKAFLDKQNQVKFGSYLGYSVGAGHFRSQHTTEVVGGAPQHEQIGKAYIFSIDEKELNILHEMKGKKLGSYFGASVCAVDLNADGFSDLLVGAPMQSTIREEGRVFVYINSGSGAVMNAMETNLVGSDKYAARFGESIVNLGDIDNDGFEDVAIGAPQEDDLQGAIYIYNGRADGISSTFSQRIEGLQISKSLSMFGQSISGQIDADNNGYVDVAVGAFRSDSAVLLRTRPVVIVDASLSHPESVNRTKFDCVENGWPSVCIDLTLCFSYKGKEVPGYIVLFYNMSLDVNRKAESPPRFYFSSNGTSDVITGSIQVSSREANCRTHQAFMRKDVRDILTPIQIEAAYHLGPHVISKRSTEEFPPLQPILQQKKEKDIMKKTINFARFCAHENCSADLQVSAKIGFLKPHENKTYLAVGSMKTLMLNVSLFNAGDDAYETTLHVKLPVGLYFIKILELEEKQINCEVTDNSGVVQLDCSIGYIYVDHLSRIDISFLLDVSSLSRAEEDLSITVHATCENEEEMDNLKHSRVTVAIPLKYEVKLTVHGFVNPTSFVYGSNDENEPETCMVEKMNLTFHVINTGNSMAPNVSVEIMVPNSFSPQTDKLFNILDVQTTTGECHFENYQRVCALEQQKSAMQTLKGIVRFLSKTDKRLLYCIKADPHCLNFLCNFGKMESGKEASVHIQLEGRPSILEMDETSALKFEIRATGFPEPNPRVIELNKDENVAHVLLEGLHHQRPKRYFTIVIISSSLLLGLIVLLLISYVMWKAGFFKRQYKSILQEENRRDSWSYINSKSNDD
T1 sequence (P05556 21-798): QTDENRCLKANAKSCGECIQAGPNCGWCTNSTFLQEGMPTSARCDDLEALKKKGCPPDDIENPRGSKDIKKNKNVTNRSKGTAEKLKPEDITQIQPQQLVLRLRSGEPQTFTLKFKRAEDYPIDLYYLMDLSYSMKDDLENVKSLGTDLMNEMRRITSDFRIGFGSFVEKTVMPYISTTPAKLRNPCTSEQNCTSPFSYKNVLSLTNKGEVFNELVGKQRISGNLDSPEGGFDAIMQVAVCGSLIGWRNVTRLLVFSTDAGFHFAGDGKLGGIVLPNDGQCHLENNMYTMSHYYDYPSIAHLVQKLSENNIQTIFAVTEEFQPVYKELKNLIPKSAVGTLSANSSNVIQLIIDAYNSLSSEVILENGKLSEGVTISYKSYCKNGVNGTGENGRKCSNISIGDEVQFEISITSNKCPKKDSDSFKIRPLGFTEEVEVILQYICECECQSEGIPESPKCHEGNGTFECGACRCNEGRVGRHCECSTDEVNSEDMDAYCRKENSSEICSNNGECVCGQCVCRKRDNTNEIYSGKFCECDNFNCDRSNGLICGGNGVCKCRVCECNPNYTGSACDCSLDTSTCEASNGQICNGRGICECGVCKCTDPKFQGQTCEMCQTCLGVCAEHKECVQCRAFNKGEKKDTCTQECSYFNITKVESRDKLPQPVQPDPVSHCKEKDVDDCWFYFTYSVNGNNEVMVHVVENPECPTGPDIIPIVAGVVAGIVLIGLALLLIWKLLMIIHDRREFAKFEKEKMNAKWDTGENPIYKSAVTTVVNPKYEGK

koff (α4β1 [1]; Jurkat cells, 35S-B probe)	kon (α4β1 [1]; Jurkat cells, 35S-B probe)	Compound	Kd (α4β1 [1]; Jurkat cells)	koff (α4β1 [1])	kon (α4β1 [1])	IC50 (α4β1 [2]; IC50(HP), 100% human plasma)	IC50 (α4β1 [2]; [4])	% bound Ca2+Mg2+ 30 min (α4β1 [1]; Ca2+Mg2+, 30 min)	% bound Mn2+ 60 min (α4β1 [1]; Mn2+, 60 min)	DBA 100% rat plasma, % @ 50 nM (α4β1 [3]; 100% rat plasma, 50 nM)	IC50 (α4β1 [3]; read-out: DBA IC50 Ca2+Mg2+, Ca2+Mg2+)	IC50 (α4β1 [3]; read-out: DBA IC50 Mn2+, Mn2+)
		Cc1ccccc1NC(=O)Nc1ccc(CC(=O)N(C)C(CC(C)C)C(=O)NCCC(NC(=O)[C@@H]2C[C@H](NC(=O)CCCCCN)CN2S(=O)(=O)c2ccccc2)C(=O)O)cc1 (relative stereo) [D]	0.061 nM	0.0002 s⁻¹	3.3e+06 M⁻¹ s⁻¹	7.9 nM	1.5 nM					
		Cc1ccccc1NC(=O)Nc1ccc(CC(=O)N(C)C(CC(C)C)C(=O)NCCC(NC(=O)[C@@H]2C[C@@H](NC(=O)CCCCCN)CN2S(=O)(=O)c2ccccc2)C(=O)O)cc1 (relative stereo) [E]	0.044 nM	0.00011 s⁻¹	2.5e+06 M⁻¹ s⁻¹	2.3 nM	1.4 nM					
0.00012 s⁻¹	3e+06 M⁻¹ s⁻¹	Cc1ccccc1NC(=O)Nc1ccc(CC(=O)N(C)[C@@H](CC(C)C)C(=O)NCC[C@H](NC(=O)[C@@H]2C[C@@H](N)CN2S(=O)(=O)c2ccccc2)C(=O)O)cc1 [C]	0.04 nM			2.1 nM	1.2 nM					
		Cc1ccccc1NC(=O)Nc1ccc(CC(=O)N(C)[C@@H](CCCCNC(=O)CCCCCN)C(=O)NCC[C@H](NC(=O)[C@@H]2CCCN2S(=O)(=O)c2ccccc2)C(=O)O)cc1 [Compound A, 4-[6-(6-Amino-hexanoylamino)-2(S)-(methyl-{2-[4-(3-o-tolyl-ureido)-phenyl]-acetyl}-amino)-hexanoylamino]-2(S)-[(1-benzenesulfonyl-pyrrolidine-2(S)-carbonyl)-amino]-butyric acid]	0.25 nM	0.00053 s⁻¹	2e+06 M⁻¹ s⁻¹	2.1 nM	0.35 nM					
0.00024 s⁻¹	3.4e+06 M⁻¹ s⁻¹	Cc1ccccc1NC(=O)Nc1ccc(CC(=O)N(C)[C@@H](CC(C)C)C(=O)NCC[C@H](NC(=O)[C@@H]2C[C@H](N)CN2S(=O)(=O)c2ccccc2)C(=O)O)cc1 [F]	0.07 nM			8.7 nM	3.5 nM					
		Cc1ccccc1NC(=O)Nc1ccc(CC(=O)N(C)C(CC(C)C)C(=O)NCCC(NC(=O)C2CC(NC(=O)CCCCCNC(=O)CCCCCCC(=O)NCCCCCC(=O)NC3CC(C(=O)NC(CCNC(=O)C(CC(C)C)N(C)C(=O)Cc4ccc(NC(=O)Nc5ccccc5C)cc4)C(=O)O)N(S(=O)(=O)c4ccccc4)C3)CN2S(=O)(=O)c2ccccc2)C(=O)O)cc1 (stereo not drawn) [Q]						0.1%	93%	(0% @	74 nM	4.3 nM
